Patent US20090035215A1, “RADIOFLUORINATION” (priority 2006, published 2009)

Assay: TABLE 1
From the text: Table printed on a drawing sheet, TABLE 1
The patent's description of the figure: FIGS. 1A, 1B, 1C, 2A, 2B, 2C, 3A, 3B AND 3C SHOW INTENSITY/RETENTION TIME CURVES FOR VARIOUS PRODUCTS.

| Compound | % intact after 6 h [%] | t1/2 [h] |
| --- | --- | --- |
| CC(C)[Si](F)(c1cccc(CCCOC2CCCCO2)c1)C(C)C (racemic) [3d - F] | > 95 | > 100.0 |
| CC(C)[Si](F)(c1cccc(CCOC2CCCCO2)c1)C(C)C (racemic) [3e - F] | > 95 | > 100.0 |
| CC(C)[Si](F)(c1ccc(CCCO)cc1)C(C)C [4c - F] |  | > 100.0 |
